Experimental data taken from patent US20250064890A1, “PROTEIN COMPOSITIONS FOR THE TREATMENT OF INFLAMMATORY DISEASES” (Unichem Laboratories Limited, priority 2021, published 2025).

What was measured:
[1] = Body weight change in 5-FU induced OM hamsters; type: in vivo, golden Syrian hamsters; conditions: G3, 0.1 mg/Animal in buccal cheek pouch, Day 4 to Day 12, with respect to Day 4
Procedure: In-vivo experiments conducted in healthy golden Syrian hamsters wherein animals were grouped as below:
(§1) To induce OM, animals were administered (except normal control) 5-Fluorouracil (5-FU) by intraperitoneal route at doses of 60 mg/kg & 40 mg/kg respectively on first two days. On Day 4, under anesthesia, with aim of enhancing OM, mechanical irritation of the oral mucosa were done using wire brush. Treatment was initiated from Day 4 to Day 12. For group 3 animals 100 μl of vehicle comprising of standard drug Dexamethasone at 0.1 mg was instilled in buccal cheek pouch. For group 4, 5 and 6 animals 100 μl of vehicle comprising of SEQ ID NO. 2 at 0.25 mg, 0.5 mg & 1 mg, respectively was instilled in buccal cheek pouch. At the end of treatment period, cheek pouch of the hamsters was exposed, Mucositis scoring was carried out and images were captured. The animals were then humanely sacrificed, cheek pouch/jugular mucosa were isolated and used for biomarker estimation and histopathological investigation by using ELISA method and Hematoxylin and Eosin (H&E) staining, respectively.
Body weight of each animal was recorded daily till the end of experiment. Percentage change in body weight of the animals was calculated by using formula with respect to Day 4.

[2] = test system: 5-Fluorouracil induced OM; test: Mucositis severity score, 5-FU induced OM in hamsters; type: in vivo, golden Syrian hamsters; conditions: G3, 0.1 mg/Animal, after 12 days; scale 0-5
Procedure: as §1
Mucositis severity was scored as given below: • Cheek pouch completely healthy—0; Mild erythema—1; • Severe erythema and superficial erosion—2; Formation of ulcers in one or more places—3; Cumulative ulcer formation about 50% of cheek pouch surface area—4; Complete ulceration of the cheek pouch mucosa—5.

[3] = test system: TNF-α; test: TNF-α in jugular mucosa (ELISA), 5-FU induced OM in hamsters; type: in vivo, golden Syrian hamsters; conditions: G3, 0.1 mg/Animal
Procedure: as §1
(§2) Further, for biomarker estimation jugular mucosa was dissected out, tissue weighed and stored in ice cold 1×PBS. 100 mg of tissue was taken and in 1 ml of 1×PBS buffer. Supernatant of homogenate was used for analysis of TNF-α and Interleukin-1β using ELISA method as per manufacturers instruction. The levels of TNF-α and Interleukin-1β are given in Table 13, FIG. 2 and Table 14, FIG. 3, respectively.

[4] = test system: Interleukin-1β; test: Interleukin-1β in jugular mucosa (ELISA), 5-FU induced OM in hamsters; type: in vivo, golden Syrian hamsters; conditions: G3, 0.1 mg/Animal
Procedure: as §1, §2

[5] = test system: 5-Fluorouracil induced OM; test: Histopathology score of cheek pouch, 5-FU induced OM in hamsters; type: in vivo, golden Syrian hamsters; conditions: G3, 0.1 mg/Animal; scale 1-5
Procedure: as §1
For histopathology the oral mucosa tissues were sectioned 5 μm thickness and stained with hematoxylin-eosin staining. For study histopathological the sections were analyzed by light microscopy.
The pouch/jugular mucosa were observed and scored for infiltration of inflammatory cells, vasodilatation, presence of hemorrhagic areas, edema, ulcerations, and abscesses.

[6] = test system: oral (buccal) mucosa cells (TR146); test: Cytoprotective effect against 5-FU induced damage (MTT); type: cell-based, human
Procedure: The cell viability was assessed by (MTT) assay and compared with positive control (Cells treated with Amifostine, EGCG and EGF and negative assay (untreated cells), wherein the control was the cells that underwent chemotherapy/radiotherapy.
The protective effect of the recombinant lectin on survival of TR146 cells against 5-FU induced damage was determined using following calculations:
The viability of cells was determined as: % Cell viability=(100−% Cytotoxicity); • where, the percentage cytotoxicity corresponding to each treatment was calculated as: % Cytotoxicity=[(R−X)/R]*100, wherein X=Absorbance of cells treated with 5-FU or radiation damage/TI+5-FU, R=Absorbance of Control cells (Untreated) and Percentage protection was calculated as:
{(Absorbance of TI+5-FU or radiation)−(Absorbance of 5-FU or radiation alone)/(Absorbance of Untreated)−(Absorbance of 5-FU alone)}*100

SMILES	decrease of body weight [1]	Mucositis score [2]	TNF-α levels, Mean [3]	TNF-α levels, % Decrease vs G2 ([3]; G2 = OM + Vehicle)	IL-1β levels, Mean [4]	IL-1β levels, % Decrease vs G2 ([4]; G2 = OM + Vehicle)	Histopathology score, Mean [5]	% Protection ([6]; 0.01 μM + 5-FU (5 mM))	% cytotoxicity ([6]; 0.01 μM + 5-FU (5 mM))	% viability ([6]; 0.01 μM + 5-FU (5 mM))	% Protection ([6]; 0.1 μM + 5-FU (5 mM))	% cytotoxicity ([6]; 0.1 μM + 5-FU (5 mM))	% viability ([6]; 0.1 μM + 5-FU (5 mM))	% Protection ([6]; 1 μM + 5-FU (5 mM))	% cytotoxicity ([6]; 1 μM + 5-FU (5 mM))	% viability ([6]; 1 μM + 5-FU (5 mM))	% Protection ([6]; 10 μM + 5-FU (5 mM))	% cytotoxicity ([6]; 10 μM + 5-FU (5 mM))	% viability ([6]; 10 μM + 5-FU (5 mM))
C[C@@H]1C[C@H]2[C@@H]3CCC4=CC(=O)C=C[C@]4(C)[C@@]3(F)[C@@H](O)C[C@]2(C)[C@@]1(O)C(=O)CO [Dexamethasone, reference compound]	6.59%	2.00±0.3	134.29 pg/mL	−8.29%	163.96	5.59%	1.6	–	–	–	–	–	–	–	–	–	–	–	–
O=C(O[C@@H]1Cc2c(O)cc(O)cc2O[C@@H]1c1cc(O)c(O)c(O)c1)c1cc(O)c(O)c(O)c1 [EGCG, Epigallocatechin gallate]	–	–	–	–	–	–	–	19.5%	47%	53%	42.4%	33.6%	66.4%	47.9%	30.4%	69.6%	24.2%	44.2%	55.8%
